Reference: PMC5041131, “Bacteroides intestinalis DSM 17393, a member of the human colonic microbiome, upregulates multiple endoxylanases during growth on xylan” (Scientific Reports, 2016)

Target: T1, BiXyl43A (Bacteroides intestinalis, UniProt B3CES2)
T1 construct: gene BACINT_04203; GH43 module without signal peptide; N-terminal 6His tag (pET-46 Ek/LIC), E. coli BL21-CodonPlus(DE3)-RIL; IMAC and size exclusion
T1 sequence (B3CES2 1-325): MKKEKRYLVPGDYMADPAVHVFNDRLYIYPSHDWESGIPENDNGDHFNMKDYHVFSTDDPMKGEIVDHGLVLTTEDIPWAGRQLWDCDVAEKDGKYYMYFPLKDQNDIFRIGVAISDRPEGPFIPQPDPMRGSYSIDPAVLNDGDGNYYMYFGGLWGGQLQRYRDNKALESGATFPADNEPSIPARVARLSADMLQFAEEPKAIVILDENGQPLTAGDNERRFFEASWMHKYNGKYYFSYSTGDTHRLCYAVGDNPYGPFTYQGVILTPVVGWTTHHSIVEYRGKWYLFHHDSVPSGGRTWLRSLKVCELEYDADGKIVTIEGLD
Assay: HPAEC-PAD of hydrolysis products
Type: biochemical
Conditions: pH […] sodium phosphate, […] NaCl, […] °C, […] min; […] substrate, […] enzyme

SMILES | HPAEC-PAD of hydrolysis products
OC1OC[C@@H](O[C@@H]2OC[C@@H](O[C@@H]3OC[C@@H](O)[C@H](O)[C@H]3O)[C@H](O)[C@H]2O)[C@H](O)[C@H]1O (some centres unmarked) [X3, xylotriose] | BiXyl43A against xylo-oligosaccharides (xylobiose, X2; xylotriose, X3; xylotetraose, X4
OC1OC[C@@H](O[C@@H]2OC[C@@H](O)[C@H](O)[C@H]2O)[C@H](O)[C@H]1O (some centres unmarked) [X2, xylobiose] | xylo-oligosaccharides ranging from xylobiose to xylohexaose led to cleavage or hydrolysis to their unit sugar
